Assay: Inhibition of N-terminal SHH activated pathway in mouse C3H10T1/2 cells assessed as SAG-induced cell differentiation by alkaline phosphatase assay

Structure (SMILES)	IC50 [nM]
CC1=C2C[C@H]3[C@@H](CC=C4C[C@@H](O)CC[C@@]43C)[C@@H]2CC[C@]12O[C@@H]1C[C@H](C)CN[C@H]1[C@H]2C	600
C[C@H]([C@@H]1CCCCN1)[C@H]1CC[C@H]2[C@@H]3CC=C4C[C@@H](O)CC[C@]4(C)[C@H]3CC[C@]12C	3200
COc1cccc(CN(C(=O)CC(C)(C)C)[C@H]2C[C@@H](C(=O)N3CCNCC3)N(Cc3ccc4c(c3)OCO4)C2)c1 [N-((3S,5S)-1-(benzo[d][1,3]dioxol-5-ylmethyl)-5-(piperazine-1-carbonyl)pyrrolidin-3-yl)-N-(3-methoxybenzyl)-3,3-dimethylbutanamide]	300
